Reference: article PMC6080781, “ATP competes with PIP2 for binding to gelsolin” (PLoS ONE, 2018)
Like-named read-outs stand apart in the source and are kept apart here.

Key:
[1] = test system: gelsolin; details: equilibrium dialysis, high NaCl concentrations, cited from earlier work
[2] = molecular target: T1, gelsolin (Homo sapiens, UniProt P06396); experiment: Steady-state fluorescence anisotropy of ATP-N binding to gelsolin
T1 construct: His tag (cleaved yes); made in house; host or cells: E. coli Rosetta2 (DE3) pLysS, pSY5 plasmid
Method: (§1) His-tagged human wild-type gelsolin was expressed in E. coli strain Rosetta2 (DE3) pLysS cells from a pSY5 plasmid. […] Traces of calcium were removed by dialysis (2 mM Tris-HCl, 1 mM EGTA, pH 7.4, overnight). Rabbit skeletal muscle actin was prepared from acetone powder (Pel-Freez Biologicals) in a protocol modified from Spudich and Watt. Actin was stored in buffer A (2 mM Tris-HCl, 0.2 mM ATP (ATP disodium trihydrate, Sigma-Aldrich), 0.1 mM CaCl2 (pCa 4), 0.1 mM DTT and 0.005% NaN3, pH 7.4). Alexa Fluor^TM 488 C5 Maleimide (Life Technologies) was used to label cysteine residues of gelsolin based on the manufacturer’s recommendations (Thermo Fisher Scientific).
(§2) We used a fluorescent derivative of PIP2 (PtdIns-(4,5)-P2-fluorescein, Cayman Chemicals, NU-10010388, λex = 493 nm, λem = 520 nm, abbreviated as PIP2-F) and a fluorescent derivative of ATP (N^6-(6-amino)hexyl-ATP-ATTO-532, Jena Bioscience, NU-805-532, λex = 532 nm, λem = 553 nm, abbreviated as ATP-N) as probes for the binding of PIP2 and ATP to gelsolin. Fluorescence intensities were measured on a Safire^2 monochromator microplate reader (TECAN) at 22°C. Steady-state fluorescence anisotropy values were determined according to Eq 1 [65], where IVV and IVH, respectively, are the intensities of vertically and horizontally polarized emission on excitation with vertically polarized light, with the correction factor, G, being the ratio of IVH/IVV.
(§3) The dissociation constants for ATP and PIP2 were calculated using a hyperbolic model from anisotropy data that had reached saturation during the gelsolin titrations Eq 2: r=rf+(rb−rf)(Kd+[G]+[L]−(Kd+[G]+[L])^2−4[G][L]/2[L]) (2) where rf is the anisotropy of free ligand, rb is the anisotropy of gelsolin-bound ligand, [L] is the total concentration of ligand, Kd is the dissociation constant and [G] is the total concentration of gelsolin. The anisotropy of 0.5 μM ATP-N was measured in the presence of gelsolin concentrations: 0, 0.2, 1.5, 2, 3, 5 and 8 μM. Saturation was evident at 5 μM characterized by an anisotropy value of 0.15 ± 0.006. The calcium and magnesium sensitivities of ATP binding to gelsolin were characterized by the change in anisotropy of solutions containing 0.5 μM ATP-N in the presence of 5 μM of gelsolin over a range of divalent cation concentrations of pCa 2–12 or pMg 1–12, where pCa and pMg refer to[…]. […] Anisotropy of 0.5 μM or 0.25 μM solutions of PIP2-F in the presence of 5 μM gelsolin was used to probe the changes in binding of the complexes under different calcium, magnesium, salt and ATP conditions.

[3] = molecular target: T1, gelsolin; experiment: Steady-state fluorescence anisotropy of PIP2-F binding to gelsolin
Method: as §1, §2
as §3, with “Saturation was evident at 5 μM characterized by an anisotropy value of 0.15 ± 0.006.” left out

[4] = Fluorescence emission of ATP-N with cations in the absence of gelsolin (precipitation); format: physicochemical
Method: Supplementary file pone.0201826.s005.pdf: S5 Fig Assessment of the effects of calcium and ATP on the binding of ATP-N and PIP2-F to gelsolin. (A) Kds were calculated from the fit data with Eq 2 of gelsolin:PIP2-F binding under different calcium concentrations in the absence or presence of ATP. In the absence of ATP, PIP2-F (0.5 μM) binds to gelsolin, as reflected by thehigh affinity, across a wide range of calcium concentrations. […] (B) In the absence of gelsolin, calcium directly precipitates ATP-N (C, open triangles) with a half-maximum value of 70.4 ± 0.7 μM. Magnesium has no effect on the fluorescence emission of ATP-N either in the absence (M, orange circles) or presence of 10 μM calcium (MC, purple squares). Data were fitted with simple sigmoidal curves. (C) The reported FURA-2FF dissociation constant for calcium ions is 25 μM (A.G. Scientific Inc.). The calcium-dependent fluorescence emission profile of FURA-2FF (2 μM) over pCa range of 5–7 was similar in the presence and absence of 20 μM PIP2, which were fitted with simple sigmoidal curves. […] The measurement was carried out with a Perkin Elmer LS-55 spectrofluorimeter (λex = 340 nm, λem = 505 nm). (PDF) Click here for additional data file.

[5] = Critical micelle concentration by dynamic light scattering; format: physicochemical
Method: tested, PIP2-F was free from micelle formation at concentrations of 0.5 µM or below, whereas […]
Methods: The critical micelle concentrations of PIP2 and 1-(1-octadecanoyl-fluorescein-2R-octadecanoylphosphatidyl)inositol-4,5-bisphosphate (Cayman Chemical, abbreviated as PIP2-F) were determined by dynamic light scattering (Huang et al., 2011). Fifty microliter samples were prepared by serial dilution of PIP2 or PIP2-F into a low salt buffer (2 mM Tris-HCl, pH 7.4), or the same buffer supplemented with 100 mM KCl, 1 mM MgCl2, and/or 1 mM CaCl2. After incubation for 30 min, the samples were centrifuged at 15,000 x g for 10 min, transferred into a 384-well clear bottom plate, and light scattering was measured using a Wyatt Dynapro plate reader at room temperature. The concentrations of PIP2-F were subsequently determined by light absorbance at 494 nm with a Nanodrop spectrophotometer. […]
Huang, W., Jiang, D., Wang, X., Wang, K., Sims, C. E., Allbritton, N. L. and Zhang, Q.

[6] = parameters: method as in A.G. Scientific Inc.; details: ref A.G. Scientific Inc.; read-out: dissociation constant for calcium ions; cited from earlier work
[7] = 0.5 μM ATP-N, 5 μM gelsolin, sigmoidal fitting

T1 sequence (P06396 28-782): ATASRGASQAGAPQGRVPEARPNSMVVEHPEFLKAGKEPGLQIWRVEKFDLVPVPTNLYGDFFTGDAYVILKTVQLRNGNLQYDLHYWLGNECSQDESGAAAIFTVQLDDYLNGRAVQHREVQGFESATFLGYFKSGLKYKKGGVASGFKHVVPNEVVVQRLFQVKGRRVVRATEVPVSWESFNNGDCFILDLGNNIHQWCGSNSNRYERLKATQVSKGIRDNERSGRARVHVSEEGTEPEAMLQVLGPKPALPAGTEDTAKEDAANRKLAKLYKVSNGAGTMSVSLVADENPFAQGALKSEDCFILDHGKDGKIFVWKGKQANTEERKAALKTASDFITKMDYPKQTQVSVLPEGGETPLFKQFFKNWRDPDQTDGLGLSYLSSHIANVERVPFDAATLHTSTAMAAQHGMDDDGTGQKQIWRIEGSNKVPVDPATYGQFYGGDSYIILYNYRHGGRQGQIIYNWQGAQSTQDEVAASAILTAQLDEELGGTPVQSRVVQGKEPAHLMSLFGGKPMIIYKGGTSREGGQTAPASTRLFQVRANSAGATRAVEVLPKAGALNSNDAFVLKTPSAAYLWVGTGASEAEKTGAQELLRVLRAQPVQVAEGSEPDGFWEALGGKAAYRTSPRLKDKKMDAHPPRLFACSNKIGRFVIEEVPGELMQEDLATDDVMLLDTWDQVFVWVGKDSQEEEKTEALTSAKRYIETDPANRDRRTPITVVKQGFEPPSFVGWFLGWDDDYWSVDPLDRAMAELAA

Compound: Nc1ncnc2c1ncn2[C@@H]1O[C@H](COP(=O)(O)OP(=O)(O)O)[C@@H](O)[C@H]1O [ADP]
- association with gelsolin [1]: no significant association

Compound: [Mg+2] [magnesium]
- inflection point (pMg) of ATP-N anisotropy decrease [2, 7]: 2.3
- IC50 ([2]; 0.5 μM ATP-N, 5 μM gelsolin, read-out: magnesium concentration at which 50% of ATP-N remains bound to gelsolin): 5000 ± 1100 µM
- magnesium concentration above which the ATP effect on gelsolin/PIP2-F is diminished ([3]; 0.5 mM ATP, 0.5 μM PIP2-F, 5 μM gelsolin): above 7 mM
- effect on the fluorescence emission of ATP-N ([4]; absence or presence of 10 μM calcium): no effect

Compound: [Ca+2] [calcium]
- inflection point (pCa) of ATP-N anisotropy decrease [2, 7]: 5.2
- IC50 ([2]; 0.5 μM ATP-N, 5 μM gelsolin, read-out: calcium concentration at which 50% of ATP-N remains bound to gelsolin): 6.3 ± 0.2 µM
- half-maximum value of calcium for precipitation of ATP-N [4]: 70.4 ± 0.7 µM

Compound: Nc1nc2c(ncn2[C@@H]2O[C@H](COP(=O)(O)OP(=O)(O)O)[C@@H](O)[C@H]2O)c(=O)[nH]1 [GDP]
- association with gelsolin [1]: no significant association

Compound: N^6-(6-amino)hexyl-ATP-ATTO-532 [ATP-N]
- anisotropy of ATP-N at saturation ([2]; 0.5 μM ATP-N, 5 μM gelsolin): 0.15 ± 0.006
- Kd ([2]; 0.5 μM ATP-N, absence of divalent cations): 0.71 ± 0.52 µM
- Kd ([2]; 50 mM KCl, 1 mM MgCl2 (pMg 3), titration with gelsolin): 1.8 µM
- Kd ([2]; 100 mM KCl): 1.27 ± 0.6 µM
- Kd ([2]; 100 mM KCl, 1 mM MgCl2 (pMg 3)): 1.58 ± 0.85 µM
- Kd ([2]; 120 mM KCl): 1.42 ± 0.27 µM
- Kd ([2]; 120 mM KCl, 1 mM MgCl2 (pMg 3)): 2.34 ± 0.73 µM
- Kd ([2]; actin polymerization conditions, above 100 μM calcium): 8.05 ± 1.32 µM

Compound: PtdIns-(4,5)-P2-fluorescein [PIP2-F]
- CMC of PIP2-F ([5]; 1 mM CaCl2 with 100 mM KCl or 100 mM KCl and 1 mM MgCl2): ~ 0.5 μM
- CMC of PIP2-F ([5]; absence of calcium): ~ 10 μM
- micelle formation ([5]; at or below 0.5 μM, buffer conditions tested): failed to form micelles
- steady-state anisotropy of PIP2-F with gelsolin ([3]; 0.5 μM PIP2-F, 5 μM gelsolin, no ATP, 1 mM Ca2+ (pCa 3)): 0.04
- steady-state anisotropy of PIP2-F with gelsolin ([3]; 0.5 μM PIP2-F, 5 μM gelsolin, no ATP, ≈0–10 μM Ca2+ (pCa 15–5)): approximately 0.12
- Kd ([3]; 0.5 μM PIP2-F, absence of divalent cations, read-out: Kd of PIP2-F for gelsolin): 0.84 ± 0.39 µM
- Kd ([3]; 100 mM KCl, read-out: Kd of PIP2-F for gelsolin): 1.35 ± 0.7 µM
- Kd ([3]; 120 mM KCl, read-out: Kd of PIP2-F for gelsolin): 3.12 ± 1.7 µM
- Kd ([3]; actin polymerization conditions (10 μM Ca2+, 1 mM Mg2+, 50 mM K+), absence of ATP, read-out: Kd of PIP2-F for gelsolin): 2.7 ± 0.2 µM
- Kd ([3]; no ATP, 1–10 μM calcium (pCa 6–5), absence of KCl and magnesium, read-out: Kd of PIP2-F/gelsolin interaction): < 1 µM
- Kd ([3]; no ATP, entire calcium range, absence of KCl and magnesium, read-out: Kd of PIP2-F/gelsolin interaction): < 20 µM

Compound: FURA-2FF
- Kd [6]: 25 µM

Compound: Nc1nc2c(ncn2[C@@H]2O[C@H](COP(=O)(O)OP(=O)(O)OP(=O)(O)O)[C@@H](O)[C@H]2O)c(=O)[nH]1 [GTP]
- Kd ([1]; read-out: dissociation constant for gelsolin): 1.8 µM
